Source: patent US20100004240A1, “Indole Compounds” (Glaxo Group Limited, priority 2006, published 2010)
Counter-ions that a name gives are not always drawn.

Assays:
[1] = biological target: T1, human prostanoid EP1 receptor (Homo sapiens, UniProt P34995); experiment: binding assay for the human prostanoid EP1 receptor (competition with [3H]-PGE2); conditions: [3H]-PGE2 competition, CHO-K1 cell membranes expressing human EP1; averages of a number of experiments; read-out: pIC50 value (converted)
T1 construct: expressed in transfected cells; host or cells: CHO-K1 cells, membrane fraction
T1 sequence (P34995 1-402): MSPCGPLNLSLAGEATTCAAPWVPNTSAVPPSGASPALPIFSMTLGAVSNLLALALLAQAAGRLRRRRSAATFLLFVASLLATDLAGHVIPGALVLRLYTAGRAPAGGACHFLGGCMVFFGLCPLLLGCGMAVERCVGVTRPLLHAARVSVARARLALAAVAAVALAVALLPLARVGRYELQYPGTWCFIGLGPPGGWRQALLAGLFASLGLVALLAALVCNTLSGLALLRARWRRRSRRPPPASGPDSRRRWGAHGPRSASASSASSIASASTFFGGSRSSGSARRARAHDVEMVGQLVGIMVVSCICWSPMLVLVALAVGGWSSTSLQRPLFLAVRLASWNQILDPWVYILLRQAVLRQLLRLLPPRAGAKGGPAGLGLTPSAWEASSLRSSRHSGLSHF
Protocol: Competition assay using [^3H]-PGE2.
Compound potencies are determined using a radioligand binding assay. In this assay compound potencies are determined from their ability to compete with tritiated prostaglandin E2 ([^3H]-PGE2) for binding to the human EP1 receptor.
This assay utilises Chinese hamster ovary-K1 (CHO-K1) cells into which a stable vector containing the EP1 cDNA has previously been transfected. Cells are cultured in suitable flasks containing culture medium such as DMEM:F-12 supplemented with 10% v/v foetal calf serum, 2 mM L-glutamine, 0.25 mg/ml geneticin, 10 μg/ml puromycin and 10 μM indomethacin.
Cells are detached from the culture flasks by incubation in calcium and magnesium free phosphate buffered saline containing 1 mM disodium ethylenediaminetetraacetic acid (Na2EDTA) and 10 μM indomethacin for 5 min. The cells are isolated by centrifugation at 250×g for 5 mins and suspended in an ice cold buffer such as 50 mM Tris, 1 mM Na2EDTA, 140 mM NaCl, 10 μM indomethacin (pH 7.4). The cells are homogenised using a Polytron tissue disrupter (2×10s burst at full setting), centrifuged at 48,000×g for 20 mins and the pellet containing the membrane fraction is washed (optional) three times by suspension and centrifugation at 48,000×g for 20 mins. The final membrane pellet is suspended in an assay buffer such as 10 mM 2-[N-morpholino]ethanesulphonic acid, 1 mM Na2EDTA, 10 mM MgCl2 (pH 6). Aliquots are frozen at −80° C. until required.
For the binding assay the cell membranes, competing compounds and [^3H]-PGE2 (3 nM final assay concentration) are incubated in a final volume of 100 μl for 30 min at 30^O C. All reagents are prepared in assay buffer. Reactions are terminated by rapid vacuum filtration over GF/B filters using a Brandell cell harvester. The filters are washed with ice cold assay buffer, dried and the radioactivity retained on the filters is measured by liquid scintillation counting in Packard TopCount scintillation counter.
The data are analysed using non linear curve fitting techniques to determine the concentration of compound producing 50% inhibition of specific binding (IC50).

[2] = biological target: T2, human EP1 receptor (Homo sapiens, UniProt P34995); experiment: human EP1 calcium mobilisation assay; assay type: cell-based; conditions: for Ki: antagonism of PGE2-induced calcium mobilisation, CHO-K1 cells expressing human EP1, averages of a number of experiments, read-out: functional pKi value (converted)
T2 construct: expressed in transfected cells; host or cells: CHO-K1 cells
T2 sequence (P34995 1-402): T1 sequence (P34995 1-402)
Protocol: Briefly, the antagonist properties of compounds are assessed by their ability to inhibit the mobilisation of intracellular calcium ([Ca^2+]i) in response to activation of EP1 or EP3 receptors by the natural agonist hormone prostaglandin E2 (PGE2). Increasing concentrations of antagonist reduce the amount of calcium that a given concentration of PGE2 can mobilise. The net effect is to displace the PGE2 concentration-effect curve to higher concentrations of PGE2. The amount of calcium produced is assessed using a calcium-sensitive fluorescent dye such as Fluo-4, AM and a suitable instrument such as a Fluorimetric Imaging Plate Reader (FLIPR). Increasing amounts of [Ca^2+]i produced by receptor activation increase the amount of fluorescence produced by the dye and give rise to an increasing signal. The signal may be detected using the FLIPR instrument and the data generated may be analysed with suitable curve-fitting software.
The human EP1 or EP3 calcium mobilisation assay (hereafter referred to as ‘the calcium assay’) utilises Chinese hamster ovary-K1 (CHO-K1) cells into which a stable (pClN; BioTechniques 20 (1996): 102-110) vector containing either EP1 or EP3 cDNA has previously been transfected. Cells are cultured in suitable flasks containing culture medium such as DMEM:F-12 supplemented with 10% v/v foetal calf serum, 2 mM L-glutamine, 0.25 mg/ml geneticin, 100 μM flurbiprofen and 10 μg/ml puromycin.
For assay, cells are harvested using a proprietary reagent that dislodges cells such as Versene. Cells are re-suspended in a suitable quantity of fresh culture media for introduction into a 384-well plate. Following incubation for 24 hours at 37° C. the culture media is replaced with a medium containing Fluo-4 and the detergent pluronic acid, and a further incubation takes place. Concentrations of compounds are then added to the plate in order to construct concentration-effect curves. This may be performed on the FLIPR in order to assess the agonist properties of the compounds. Concentrations of PGE2 are then added to the plate in order to assess the antagonist properties of the compounds.
The data so generated may be analysed by means of a computerised curve-fitting routine. The concentration of compound that elicits a half-maximal inhibition of the calcium mobilisation induced by PGE2 (pIC50) may then be estimated.

CC(C)Cn1cc(-c2nc(-c3nc4ccc(CN5CCCCC5)cc4[nH]3)co2)c2cc(Cl)ccc21 [Example 12, 2-{2-[5-Chloro-1-(2-methylpropyl)-1H-indol-3-yl]-1,3-oxazol-4-yl}-5-(1-piperidinylmethyl)-1H-benzimidazole dihydrochloride]
IC50 [1]: ≤ 316 nM

CC(C)Cn1cc(-c2nc(C(=O)NCC3CCOCC3)co2)c2cc(Cl)ccc21 [Example 7, 2-[5-Chloro-1-(2-methylpropyl)-1H-indol-3-yl]-N-(tetrahydro-2H-pyran-4-ylmethyl)-1,3-oxazole-4-carboxamide]
IC50 [1]: ≤ 316 nM | Ki [2]: ≤ 316 nM

CC(C)Cn1cc(-c2nc(C(=O)Nc3cccnc3)co2)c2cc(Cl)ccc21 [Example 5, 2-[5-Chloro-1-(2-methylpropyl)-1H-indol-3-yl]-N-3-pyridinyl-1,3-oxazole-4-carboxamide]
IC50 [1]: ≤ 316 nM | Ki [2]: ≤ 316 nM

CC(C)Cn1cc(-c2nc(-c3nc4ncccc4[nH]3)co2)c2cc(Cl)ccc21 [Example 10, 2-{2-[5-Chloro-1-(2-methylpropyl)-1H-indol-3-yl]-1,3-oxazol-4-yl}-1H-imidazo[4,5-b]pyridine]
IC50 [1]: ≤ 316 nM | Ki [2]: ≤ 1000 nM

O=C(c1coc(-c2cn(C3CCCC3)c3ccc(Cl)cc23)n1)N1CCOCC1 [Example 4, 5-Chloro-1-cyclopentyl-3-[4-(4-morpholinylcarbonyl)-1,3-oxazol-2-yl]-1H-indole]
IC50 [1]: ≤ 1000 nM | Ki [2]: ≤ 1000 nM

CC(C)Cn1cc(-c2nc(-c3nc4cc(CO)ccc4[nH]3)co2)c2cc(Cl)ccc21 [Example 11, (2-{2-[5-Chloro-1-(2-methylpropyl)-1H-indol-3-yl]-1,3-oxazol-4-yl}-1H-benzimidazol-5-yl)methanol]
IC50 [1]: ≤ 316 nM | Ki [2]: ≤ 316 nM

CCNCc1ccc2nc(-c3coc(-c4cn(CC(C)C)c5ccc(Cl)cc45)n3)[nH]c2c1 [Example 14, [(2-{2-[5-Chloro-1-(2-methylpropyl)-1H-indol-3-yl]-1,3-oxazol-4-yl}-1H-benzimidazol-5-yl)methyl]ethylamine dihydrochloride]
IC50 [1]: ≤ 1000 nM

CC(C)Cn1cc(-c2nc(-c3nc4ccc(CN5CCCC5)cc4[nH]3)co2)c2cc(Cl)ccc21 [Example 13, 2-{2-[5-Chloro-1-(2-methylpropyl)-1H-indol-3-yl]-1,3-oxazol-4-yl}-5-(1-pyrrolidinylmethyl)-1H-benzimidazole dihydrochloride]
IC50 [1]: ≤ 316 nM

CC(C)Cn1cc(-c2nc(C(N)=O)co2)c2cc(Cl)ccc21 [Example 8, 2-[5-Chloro-1-(2-methylpropyl)-1H-indol-3-yl]-1,3-oxazole-4-carboxamide]
IC50 [1]: ≤ 316 nM | Ki [2]: ≤ 316 nM

CC(C)Cn1cc(-c2nc(-c3nc4ccccc4[nH]3)co2)c2cc(Cl)ccc21 [Example 9, 2-{2-[5-Chloro-1-(2-methylpropyl)-1H-indol-3-yl]-1,3-oxazol-4-yl}-1H-benzimidazole hydrochloride]
IC50 [1]: ≤ 316 nM | Ki [2]: ≤ 316 nM

O=C(NC1CCOCC1)c1coc(-c2cn(CC3CC3)c3ccc(Cl)cc23)n1 [Example 1, 2-[5-Chloro-1-(cyclopropylmethyl)-1H-indol-3-yl]-N-(tetrahydro-2H-pyran-4-yl)-1,3-oxazole-4-carboxamide]
IC50 [1]: ≤ 1000 nM | activity in the calcium mobilisation assay ([2]; human EP1, CHO-K1 cells): inactive

O=C(NN1CCOCC1)c1coc(-c2cn(C3CCCC3)c3ccc(Cl)cc23)n1 [Example 3, 2-(5-Chloro-1-cyclopentyl-1H-indol-3-yl)-N-4-morpholinyl-1,3-oxazole-4-carboxamide]
IC50 [1]: ≤ 316 nM | Ki [2]: ≤ 316 nM

O=C(NN1CCOCC1)c1coc(-c2cn(CC3CC3)c3ccc(Cl)cc23)n1 [Example 2, 2-[5-Chloro-1-(cyclopropylmethyl)-1H-indol-3-yl]-N-4-morpholinyl-1,3-oxazole-4-carboxamide]
IC50 [1]: ≤ 316 nM | Ki [2]: ≤ 1000 nM

CC(C)Cn1cc(-c2nc(C(=O)Nc3ccccn3)co2)c2cc(Cl)ccc21 [Example 6, 2-[5-Chloro-1-(2-methylpropyl)-1H-indol-3-yl]-N-2-pyridinyl-1,3-oxazole-4-carboxamide]
Ki [2]: ≤ 316 nM
